Where two headings read alike, the source gives them in different places.
Columns and labels:
His6-TEV-PPARγ-(234-505) = target: T1, His6-TEV-PPARγ-(234-505) (Homo sapiens, UniProt P37231); test: TR-FRET Assay to Measure Co-R Peptide Recruitment to PPARγ; type: biochemical; details: Co-R peptide (SMRT-ID2) recruitment; top final concentration 20 μM; read-out: TR-FRET i-Ag; AC50
T1 construct: The His6-TEV-PPARγ-(234-505) protein for assay was expressed and purified; TEV cleavage site (N); made in house
T1 sequence (P37231 234-505): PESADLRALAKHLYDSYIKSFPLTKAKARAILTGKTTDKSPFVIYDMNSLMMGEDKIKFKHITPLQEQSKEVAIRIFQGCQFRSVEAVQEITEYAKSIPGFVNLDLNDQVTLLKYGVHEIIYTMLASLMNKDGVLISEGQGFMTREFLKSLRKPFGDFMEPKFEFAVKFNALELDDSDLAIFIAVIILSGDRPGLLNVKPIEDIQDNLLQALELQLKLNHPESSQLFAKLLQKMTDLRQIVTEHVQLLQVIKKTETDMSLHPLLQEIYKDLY
How it was run: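 Corepressor recruitment is measured by adding terbium-labeled anti-His antibody and FITC SMRT-ID2 peptide, at 5 and 200 nM final, after a 20-minute room-temperature protein–compound incubation. After one further hour, signal is converted to percent response between DMSO and 500 nM T0070907 wells.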

UM-UC-9 engineered cells = test: Cell proliferation / short-term viability assay, CellTiter-Glo 144 h; type: cell-based, human; details: read-out: CTGlo 144 h UMUC9.5, G150
How it was run: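 Viability read by CellTiter-Glo 2.0 luminescence at day 7 versus DMSO-vehicle wells and a T0 plate measured on day 0. Cells: UM-UC-9 engineered assay-ready stocks, 500 cells/well in high-glucose DMEM with 10% FBS, 37° C, 5% CO2.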

## COc1cc(-c2cc(C(=O)N3CC[C@H](C(=O)NCC45CC(C(F)(F)F)(C4)C5)CC34CC4)[nH]n2)c(F)cn1 [Example 515, (S)-4-(3-(5-fluoro-2-methoxypyridin-4-yl)-1H-pyrazole-5-carbonyl)-N-((3-(trifluoromethyl)bicyclo[1.1.1]pentan-1-yl)methyl)-4-azaspiro[2.5]octane-7-carboxamide]
His6-TEV-PPARγ-(234-505)
  AC50: 5 nM
UM-UC-9 engineered cells; Homo sapiens, UM-UC-9, 144 h
  IC50: 6 nM

## COc1cc(-c2cc(C(=O)N3CC[C@H](C(=O)NCc4cnccc4C(F)(F)F)CC34CC4)n[nH]2)c(F)cn1 [Example 516, (S)-4-(5-(5-fluoro-2-methoxypyridin-4-yl)-1H-pyrazole-3-carbonyl)-N-((4-(trifluoromethyl)pyridin-3-yl)methyl)-4-azaspiro[2.5]octane-7-carboxamide]
His6-TEV-PPARγ-(234-505)
  AC50: 3.3 nM
UM-UC-9 engineered cells; Homo sapiens, UM-UC-9, 144 h
  IC50: 10 nM

## COc1cc(-c2cc(C(=O)N3CC[C@H](C(=O)NCc4sc(C)nc4C(F)(F)F)CC34CC4)[nH]n2)c(F)cn1 [Example 517, (S)-4-(3-(5-fluoro-2-methoxypyridin-4-yl)-1H-pyrazole-5-carbonyl)-N-((2-methyl-4-(trifluoromethyl)thiazol-5-yl)methyl)-4-azaspiro[2.5]octane-7-carboxamide]
His6-TEV-PPARγ-(234-505)
  AC50: 7.9 nM
UM-UC-9 engineered cells; Homo sapiens, UM-UC-9, 144 h
  IC50: 20.3 nM

## COc1cc(-c2cc(C(=O)N3CC[C@H](C(=O)NCc4nccn4C(F)(F)F)CC34CC4)[nH]n2)c(F)cn1 [Example 519, (S)-4-(3-(5-fluoro-2-methoxypyridin-4-yl)-1H-pyrazole-5-carbonyl)-N-((1-(trifluoromethyl)-H-imidazol-2-yl)methy)-4-azaspiro[2.5]octane-7-carboxamide]
His6-TEV-PPARγ-(234-505)
  AC50: 4.3 nM
UM-UC-9 engineered cells; Homo sapiens, UM-UC-9, 144 h
  IC50: 19.1 nM

## COc1cc(-c2cc(C(=O)N3CC[C@H](C(=O)NC45COC(CO)(C4)C5)CC34CC4)n[nH]2)c(F)cn1 [Example 520, (S)-4-(5-(5-fluoro-2-methoxypyridin-4-yl)-1H-pyrazole-3-carbonyl)-N-(1-(hydroxymethyl)-2-oxabicyclo[2.1.1]hexan-4-yl)-4-azaspiro[2,5]octane-7-carboxamide]
His6-TEV-PPARγ-(234-505)
  AC50: 784 nM
UM-UC-9 engineered cells; Homo sapiens, UM-UC-9, 144 h
  IC50: > 10000 nM

## COc1cc(-c2cc(C(=O)N3CC[C@H](C(=O)NCc4ncc(N5CCN(C)CC5)cc4Cl)CC34CC4)n[nH]2)c(F)cn1 [Example 521, (S)—N-((3-chloro-5-(4-methylpiperazin-1-yl)pyridin-2-yl)methyl)-4-(5-(5-fluoro-2-methoxypyridin-4-yl)-1H-pyrazole-3-carbonyl)-4-azaspiro[2.5]octane-7-carboxamide]
His6-TEV-PPARγ-(234-505)
  AC50: 1.8 nM
UM-UC-9 engineered cells; Homo sapiens, UM-UC-9, 144 h
  IC50: 19.8 nM

## COc1cc(-c2cc(C(=O)N3CC[C@H](C(=O)NCc4ccc5c(c4)B(O)OC5(C)C)CC34CC4)[nH]n2)c(F)cn1 [Example 522, (S)-4-(3-(5-fluoro-2-methoxypyridin-4-yl)-1H-pyrazole-5-carbonyl)-N-((1-hydroxy-3,3-dimethyl-1,3-dihydrobenzo[c][1,2]oxaborol-6-yl)methyl)-4-azaspiro[2.5]octane-7-carboxamide]
His6-TEV-PPARγ-(234-505)
  AC50: 1.4 nM
UM-UC-9 engineered cells; Homo sapiens, UM-UC-9, 144 h
  IC50: 14.3 nM

## COc1cc(-c2cc(C(=O)N3CC[C@H](C(=O)Nc4ccc5c(c4)COB5O)CC34CC4)[nH]n2)c(F)cn1 [Example 523, (S)-4-(3-(5-fluoro-2-methoxypyridin-4-yl)-1H-pyrazole-5-carbonyl)-N-(1-hydroxy-1,3-dihydrobenzo[c][1,2]oxaborol-5-yl)-4-azaspiro[2.5]octane-7-carboxamide]
His6-TEV-PPARγ-(234-505)
  AC50: 5.3 nM
UM-UC-9 engineered cells; Homo sapiens, UM-UC-9, 144 h
  IC50: 54.3 nM

## COc1cc(-c2cc(C(=O)N3CC[C@H](C(=O)NCc4ccncc4C(F)(F)F)CC34CC4)[nH]n2)c(F)cn1 [Example 525, (S)-4-(3-(5-fluoro-2-methoxypyridin-4-yl)-1H-pyrazole-5-carbonyl)-N-((3-(trifluoromethyl)pyridin-4-yl)methyl)-4-azaspiro[2.5]octane-7-carboxamide]
His6-TEV-PPARγ-(234-505)
  AC50: 7 nM
UM-UC-9 engineered cells; Homo sapiens, UM-UC-9, 144 h
  IC50: 19 nM

## COc1cc(-c2cc(C(=O)N3CC[C@H](C(=O)NCc4c(C(F)(F)F)nn(C)c4Cl)CC34CC4)[nH]n2)c(F)cn1 [Example 526, (S)—N-((5-chloro-1-methyl-3-(trifluoromethyl)-1H-pyrazol-4-yl)methyl)-4-(3-(5-fluoro-2-methoxypyridin-4-yl)-1H-pyrazole-5-carbonyl)-4-azaspiro[2.5]octane-7-carboxamide]
His6-TEV-PPARγ-(234-505)
  AC50: 3.7 nM
UM-UC-9 engineered cells; Homo sapiens, UM-UC-9, 144 h
  IC50: 7.1 nM

## (1R,3S,5S)-8-[5-(5-fluoro-2-methoxypyridin-4-yl)-1H-pyrazole-3-carbonyl]-N-[(1r,4r)-4-(2-methoxyethoxy)-4-(trifluoromethyl)cyclohexyl]-8-azabicyclo[3.2.1]octane-3-carboxamide and (1R,3S,5S)-8-[5-(5-fluoro-2-methoxypyridin-4-yl)-1H-pyrazole-3-carbonyl]-N-[(1s,4s)-4-(2-methoxyethoxy)-4-(trifluoromethyl)cyclohexyl]-8-azabicyclo[3.2.1]octane-3-carboxamide [Example 304]
His6-TEV-PPARγ-(234-505)
  AC50: 44.4 nM
UM-UC-9 engineered cells
  IC50: 201 nM

## (1R,3s,5S)-8-(5-(5-fluoro-2-methoxypyridin-4-yl)-1H-pyrazole-3-carbonyl)-N—((R)-1-(3-(trifluoromethyl)-1,2,4-oxadiazol-5-yl)ethyl)-8-azabicyclo[3.2.1]octane-3-carboxamide and (1R,3s,5S)-8-(5-(5-fluoro-2-methoxypyridin-4-yl)-1H-pyrazole-3-carbonyl)-N—(S)-1-(3-(trifluoromethyl)-1,2,4-oxadiazol-5-yl)ethyl)-8-azabicyclo[3.2.1]octane-3-carboxamide [Example 290]
His6-TEV-PPARγ-(234-505)
  AC50: 400 nM
UM-UC-9 engineered cells
  IC50: 833 nM

## (1R,3s,5S)—N-(3-chlorobenzyl)-8-(5-(5-fluoro-2-methoxypyridin-4-yl)-1H-pyrazole-3-carbonyl)-8-azabicyclo[3.2.1]octane-3-carboxamide and (1R,3r,5S)—N-(3-chlorobenzyl)-8-(5-(5-fluoro-2-methoxypyridin-4-yl)-1H-pyrazole-3-carbonyl)-8-azabicyclo[3.2.1]octane-3-carboxamide [Example 160]
His6-TEV-PPARγ-(234-505)
  AC50: 11.6 nM
UM-UC-9 engineered cells
  IC50: 20.6 nM

## (1R,3s,5S)—N-((1r,4R)-4-ethoxy-4-(trifluoromethyl)cyclohexyl)-8-(5-(5-fluoro-2-methoxypyridin-4-yl)-1H-pyrazole-3-carbonyl)-8-azabicyclo[3.2.1]octane-3-carboxamide and (1R,3s,5S)—N-((1s,4S)-4-ethoxy-4-(trifluoromethyl)cyclohexyl)-8-(5-(5-fluoro-2-methoxypyridin-4-yl)-1H-pyrazole-3-carbonyl)-8-azabicyclo[3.2.1]octane-3-carboxamide [Example 303]
His6-TEV-PPARγ-(234-505)
  AC50: 7.3 nM
UM-UC-9 engineered cells
  IC50: 41.5 nM

## (2S,4R)-1-(5-(5-fluoro-2-methoxypyridin-4-yl)-1H-pyrazole-3-carbonyl)-N-((1r,4R)-4-hydroxy-4-(trifluoromethyl)cyclohexyl)-2-(trifluoromethyl)piperidine-4-carboxamide and (2S,4S)-1-(5-(5-fluoro-2-methoxypyridin-4-yl)-1H-pyrazole-3-carbonyl)-N-((1r,4S)-4-hydroxy-4-(trifluoromethyl)cyclohexyl)-2-(trifluoromethyl)piperidine-4-carboxamide [Example 367]
His6-TEV-PPARγ-(234-505)
  AC50: 22 nM
UM-UC-9 engineered cells
  IC50: 12 nM

## (R)-4-(5-(5-fluoro-2-methoxy-3-methylpyridin-4-yl)-1H-pyrazole-3-carbonyl)-N-((1r,4R)-4-hydroxy-4-(trifluoromethyl)cyclohexyl)-4-azaspiro[2.5]octane-7-carboxamide and (S)-4-(5-(5-fluoro-2-methoxy-3-methylpyridin-4-yl)-1H-pyrazole-3-carbonyl)-N-((1r,4S)-4-hydroxy-4-(trifluoromethyl)cyclohexyl)-4-azaspiro[2.5]octane-7-carboxamide [Example 493]
His6-TEV-PPARγ-(234-505)
  AC50: 12.6 nM
UM-UC-9 engineered cells
  IC50: 88.6 nM

## (S)-1-(5-(5-fluoro-2-methoxypyridin-4-yl)-1H-pyrazole-3-carbonyl)-N-((1r,4S)-4-hydroxy-4-(trifluoromethyl)cyclohexyl)-2,2-dimethylpiperidine-4-carboxamide and (R)-1-(5-(5-fluoro-2-methoxypyridin-4-yl)-1H-pyrazole-3-carbonyl)-N-((1r,4R)-4-hydroxy-4-(trifluoromethyl)cyclohexyl)-2,2-dimethylpiperidine-4-carboxamide [Example 407]
His6-TEV-PPARγ-(234-505)
  AC50: 30.3 nM
UM-UC-9 engineered cells
  IC50: 23 nM

## (S)-4-(5-(2-chloro-5-fluoropyridin-4-yl)-1H-pyrazole-3-carbonyl)-N-((1r,4S)-4-hydroxy-4-(trifluoromethyl)cyclohexyl)-4-azaspiro[2.5]octane-7-carboxamide and (R)-4-(5-(2-chloro-5-fluoropyridin-4-yl)-1H-pyrazole-3-carbonyl)-N-((1r,4R)-4-hydroxy-4-(trifluoromethyl)cyclohexyl)-4-azaspiro[2.5]octane-7-carboxamide [Example 529]
His6-TEV-PPARγ-(234-505)
  AC50: 10.6 nM
UM-UC-9 engineered cells
  IC50: 34.2 nM
